From US9096650B2, “Cyclic oligopeptides for binding to a target ligand” (LEXCICON LIMITED, priority 2006, dated 2015)

Columns and labels:
TNF secretion = settings: in words; literature reference; cited from earlier work
[1] = system: J774A.1 cells (a macrophage cell line); assay: Suppression of LPS-stimulated TNF secretion by peptide formulated with hydroxypropyl beta-cyclodextrin (Example 4); format: cell-based
Protocol: • 1. A cyclic octapeptide with the structure cyclo(-DF-S-Σ-R-DF-S-Σ-R-) was prepared as a solution in transcutol at a concentration of 5 mg/ml, where Σ represents the associating amino acid as an L-alpha aminocarboxylic acid and the associating functional group borne on the associating amino acid as a side-chain residue consisting of a straight aliphatic chain containing ten carbon atoms. • 2. Six separate aliquots of 200 ul of the solution in step 1 were transferred to fresh 8 ml vials and mixed with slow vortexing with 800 ul of a solution of hydroxy-propyl beta cyclodextrin at a concentration 50, 25, 12.5, 6.25, 3.125 or 1.5625 mg/ml in distilled water • 2. J774A.1 cells (a macrophage cell line) were plated out in all the wells of a 24-well cluster plates at a seeding density of 5×10^5 cells/ml/well (1 ml RPMI 1640 culture medium per well), and incubated overnight at 37° C. in 5% CO2/air. • 3. The following day, each of the solutions from step 1 were administered in appropriate volumes to wells containing cells in step 2, to give three wells each with a final concentration of 8, 4, or 2 ug/ml. The remaining wells were left untreated. The plate was incubated for a further four hours at 37 degC. • 4. Lipopolysaccharide (from E. coli strain 0111 B4) was added to the wells receiving the octapeptide solution, as well as three of the wells receiving no peptide. The final concentration of lipopolysaccharide was 0.625 ug/ml. • 5. The plate was incubated overnight, and the following day the supernatants were assayed for TNF using a commercial ELISA kit.

[2] = system: J774-1 cells (a macrophage cell line); assay: Suppression of TNF secretion stimulated by LPS in a macrophage cell line, varying epitope order and stereochemistry of associating amino acids (Example 3); format: cell-based; settings: peptide 50 ug/ml; LPS 1.25 ug/ml; LPS alone 1861.9
Protocol: • 1. Cyclic octapeptides were prepared with the following structures: cyclo(-DF-S-ΣL-R-DF-S-ΣL-R-) cyclo(-DF-S-ΣL-R-DF-S-ΣD-R-) cyclo(-DF-S-ΣD-R-DF-S-ΣD-R-) cyclo(-DF-R-ΣL-S-DF-R-ΣL-S-) cyclo(-DF-R-ΣL-S-DF-R-ΣD-S-) cyclo(-DF-R-ΣD-S-DF-R-ΣD-S-) wherein F, S and R are the epitope-forming amino acids, ΣL represents an associating amino acid which is an L-alpha aminocarboxylic acid in which the associating functional group is a side-chain residue consisting of an unbranched —C10H21; ΣD represents an associating amino acid which is a D-alpha aminocarboxylic acid in which the associating functional group is a side-chain residue consisting an unbranched —C10H21. These cyclic oligopeptides were prepared as solutions in distilled water at a concentration of 1 mg/ml. • 2. J774-1 cells (a macrophage cell line) were plated out in all the wells of a 24-well cluster plates at a seeding density of 3×10^5 cells/ml/well (1 ml RPMI 1640 culture medium per well), and incubated overnight at 37° C. in 5% CO2/air. • 3. The following day, the solutions from step 1 were administered to eighteen wells containing cells in step 2, to give three wells each with a final concentration of 50 ug/ml. The remaining wells were left untreated. The plate was incubated for a further four hours at 37 degC. • 4. Lipopolysaccharide (from E. coli strain 0111 B4) was added to the wells receiving the octapeptide solutions, as well as three of the wells receiving no peptide. The concentration of lipopolysaccharide was 1.25 ug/ml. • 5. The plate was incubated overnight, and the following day the supernatants were assayed for TNF using a commercial ELISA kit.

TNF = assay: Suppression of TNF secretion stimulated by LPS in rats (Example 5); format: in vivo
Protocol: • 1. A cyclic octapeptide with the structure cyclo(-DF-S-Σ-R-DF-S-ΣR-), where Σ represents the associating amino acid as an L-alpha aminocarboxylic acid and the associating functional group borne on the associating amino acid as a side-chain residue consisting of a straight aliphatic chain containing ten carbon atoms, was prepared as a solution in transcutol and hydroxypropyl beta-cyclodextrin as described in example 4, where the concentration of peptide was 1 mg/ml, and the final concentration of cyclodextrin was 40 mg/ml. • 2. Rats weighing 250 g were injected i.p. with 1 ml of peptide solution (1 mg peptide per rat). A second group of rats received 1 ml of the transcutol/cyclodextrin vehicle containing no peptide. One hour later, the rats were further injected with 1 mg of lipopolysaccharide (from Salmonella abortus equi). • 3. 150 minutes later, blood samples were taken, and TNF levels measured in the two groups by ELISA.

[3] = system: J774A.1 cells (a macrophage cell line); assay: Dose response: suppression of TNF secretion stimulated by lipopolysaccharide (LPS) in a macrophage cell line (Example 1); format: cell-based; settings: LPS 0.625 ug/ml
Protocol: • 1. A cyclic octapeptide with the structure: cyclo(-DF-S-Σ-R-DF-S-Σ-R-) • was synthesised using standard methods based on the Merrifield resin-based technique, followed by solution-phase cyclisation. The purified peptide was prepared as a solution in distilled water at a concentration of 1 mg/ml. • R, F and S represent the epitope-forming amino acids and Σ represents the associating functional group borne on the associating amino acid wherein the associating amino acid is an L-alpha aminocarboxylic acid and the associating functional group is a side-chain residue consisting of a straight aliphatic chain containing ten carbon atoms. • All amino acids are in the L form unless indicated otherwise. • All amino acids are linked by peptide bonds. • 2. J774A.1 cells (a macrophage cell line) were plated out in all the wells of a 24-well cluster plates at a seeding density of 5×10^5 cells/ml/well (1 ml RPMI 1640 culture medium per well), and incubated overnight at 37° C. in 5% CO2/air. • 3. The following day, the solution from step 1 was administered to fifteen wells containing cells in step 2, to give three wells each with a final concentration of 50, 25, 12.5, 6.25 or 3.125 ug/ml. The remaining wells were left untreated. The plate was incubated for a further four hours at 37 degC. • 4. Lipopolysaccharide (from E. coli strain 0111 B4) was added to the wells receiving the octapeptide solution, as well as three of the wells receiving no peptide. The final concentration of lipopolysaccharide was 0.625 ug/ml. • 5. The plate was incubated overnight, and the following day the supernatants were assayed for TNF using a commercial ELISA kit.

Glatiramer acetate [Copaxone]
TNF secretion in vitro (TNF secretion): down-regulate TNF secretion in vitro

cyclo(-DF-S-Σ-R-DF-S-Σ-R-)
inhibition of TNF secretion ([1]; in words, down to 2 ug/ml in the well, cyclodextrin from 40:1 wt:wt downwards): significant inhibition
TNF concentration ([1]; peptide 2 ug/ml, cyclodextrin:peptide 1.25 by weight): 2161.8 pg/mL
TNF concentration ([1]; peptide 2 ug/ml, cyclodextrin:peptide 2.5 by weight): 2314.2 pg/mL
TNF concentration ([1]; peptide 2 ug/ml, cyclodextrin:peptide 5 by weight): 2177.2 pg/mL
TNF concentration ([1]; peptide 2 ug/ml, cyclodextrin:peptide 10 by weight): 2278.3 pg/mL
TNF concentration ([1]; peptide 2 ug/ml, cyclodextrin:peptide 20 by weight): 2223.9 pg/mL
TNF concentration ([1]; peptide 2 ug/ml, cyclodextrin:peptide 40 by weight, LPS 0.625 ug/ml, no peptide 2519.3): 2450.2 pg/mL
TNF concentration ([1]; peptide 4 ug/ml, cyclodextrin:peptide 1.25 by weight): 1599.9 pg/mL
TNF concentration ([1]; peptide 4 ug/ml, cyclodextrin:peptide 2.5 by weight): 1538.7 pg/mL
TNF concentration ([1]; peptide 4 ug/ml, cyclodextrin:peptide 5 by weight): 1477.5 pg/mL
TNF concentration ([1]; peptide 4 ug/ml, cyclodextrin:peptide 10 by weight): 1474.8 pg/mL
TNF concentration ([1]; peptide 4 ug/ml, cyclodextrin:peptide 20 by weight): 1488.1 pg/mL
TNF concentration ([1]; peptide 4 ug/ml, cyclodextrin:peptide 40 by weight): 1646.5 pg/mL
TNF concentration ([1]; peptide 8 ug/ml, cyclodextrin:peptide 1.25 by weight): 1130.9 pg/mL
TNF concentration ([1]; peptide 8 ug/ml, cyclodextrin:peptide 2.5 by weight): 1105.7 pg/mL
TNF concentration ([1]; peptide 8 ug/ml, cyclodextrin:peptide 5 by weight): 1140.6 pg/mL
TNF concentration ([1]; peptide 8 ug/ml, cyclodextrin:peptide 10 by weight): 1218.7 pg/mL
TNF concentration ([1]; peptide 8 ug/ml, cyclodextrin:peptide 20 by weight): 1298.4 pg/mL
TNF concentration ([1]; peptide 8 ug/ml, cyclodextrin:peptide 40 by weight): 1276.9 pg/mL
Concentration of TNF [2]: 865.4 pg/mL
TNF (blood) (TNF; 1 mg peptide i.p. in transcutol/cyclodextrin, 1 mg LPS one hour later, blood 150 minutes later, vehicle 10717): 2370 pg/mL
reduction of TNF production versus vehicle (TNF; 1 mg peptide i.p., LPS stimulus): greater than 75%
TNF concentration ([3]; peptide 3.125 ug/ml, LPS alone 1780.09): 1494.53 pg/mL
TNF concentration ([3]; peptide 6.25 ug/ml): 1346.20 pg/mL
TNF concentration ([3]; peptide 12.5 ug/ml): 1037.31 pg/mL
TNF concentration ([3]; peptide 25.0 ug/ml): 621.75 pg/mL
TNF concentration ([3]; peptide 50.0 ug/ml): 613.70 pg/mL
